Measured values published in patent publication US20050147527A1, “Microbial destruction using a gas phase decontaminant” (priority 2004, published 2005).
Values joined by “and” are separate entries in the source; they are usually repeats but may differ in a detail not shown here. Equal values may be shown once. Read-outs that look alike come from different tables or passages of the source.

How the values were obtained:
[1] = tested on: streptomycin-resistant S. choleraesuis; details: Radishes; dispense time 3 min; 180° F.; 18 inch Hg; wait 0 min
Method: (§1) The following experiments were performed using a system in accordance with the present invention. Food crops were pruned of inedible roots, leaves, etc., and weighed. A given food crop was then inoculated with a single challenge microorganism. All challenge microorganisms were purchased from ATCC as streptomycin-resistant strains-Esherichia coli (E. coli), Staphylococcus aureus (S. aureus), and Salmonella choleraesuis (S. choleraesuis). […] After inoculation, the crops were left to dry for 30 minutes to 1 hour. The crops were then placed in the Ziploc® bag and into the vacuum chamber. […] Parameters such as vacuum pressure, dispensing time, and sterilization wait time were varied in order to arrive at some conclusion concerning the optimum conditions for effective disinfection of the food crops. After the disinfection cycle had ended, the crops were neutralized in 50 mL of 10% thiosulfate solution contained in a sterile mastication bag.
(§2) The bag was then placed in a masticator and pulverized for 2 minutes. The liquid contents were then serially diluted and plated onto the appropriate agar medium. The plates were incubated at 37° C. for 24 hours and plate counts were performed. […] A log reduction in terms of CFU/g was calculated by subtracting the plate counts of the disinfected food from that of its respective control, as shown in Table 1.
(§3) Lettuce was used as the food crop while streptomycin-resistant E. coli was chosen as the challenge microorganism. […] Each food crop was inoculated with streptomycin-resistant strains of E. coli, S. aureus, and S. choleraesuis in separate experiments and 3 minutes was used as the dispense time in every run.

[2] = tested on: streptomycin-resistant S. aureus; details: 180° F.; for Log Post-Disinfection (CFU/g) / Log Reduction (CFU/g): DT 18 min
Method: as §1, §2, §3

[3] = tested on: streptomycin-resistant E. coli; details: 180° F.; for Log Post-Disinfection (CFU/g) / Log Reduction (CFU/g): DT 18 min
Method: as §1, §2, §3

[4] = tested on: Bacillus subtilis spores
Method: A protocol analogous to that used for the food crops was employed for spore testing on stainless steel coupons. 3-1.75 cm×3.75 cm stainless steel coupons were each inoculated (front & back) with a total of 100 μL of Bacillus subtilis spores. The spores were allowed to dry and the three coupons were aseptically transferred to a Ziploc® bag. The remaining protocol used was similar to that of the food crops except that each coupon was neutralized in 8 mL of 10% thiosulfate solution and each coupon's solution was serially diluted and plated onto media.

[5] = tested on: E. coli, S. aureus, S. choleraesuis
[6] = Lettuce, VP 15 inch Hg, SW 15 min
[7] = Radishes, VP 15 inch Hg, SW 30 min
[8] = Radishes, VP 20 inch Hg, SW 5 min
[9] = Radishes, VP 20 inch Hg, SW 10 min
[10] = Radishes, VP 20 inch Hg, SW 15 min
[11] = Radishes, dispense time 3 min, 18 inch Hg, wait 0 min
[12] = Carrots, VP 15 inch Hg, SW 10 min
[13] = Carrots, VP 15 inch Hg, SW 15 min
[14] = Carrots, VP 15 inch Hg, SW 20 min
[15] = Carrots, VP 15 inch Hg, SW 30 min
[16] = Carrots, VP 17 inch Hg, SW 5 min
[17] = Carrots, VP 18 inch Hg, SW 10 min
[18] = Lettuce, VP 15 inch Hg, SW 10 min
[19] = Radishes, VP 15 inch Hg, SW 10 min
[20] = Radishes, VP 15 inch Hg, SW 15 min
[21] = Table 3, Lettuce, dispense time 3 min, 18 inch Hg, wait 0 min
[22] = stainless steel coupons, 12 minute dispense time, 180° F., 18 inch Hg, wait 0 min

OO [hydrogen peroxide]
Log10 Post-Disinfection (CFU/g) [1]: 1.67 CFU/g and 1.95 CFU/g and 1.82 CFU/g
Log Post-Disinfection (CFU/g) [2, 6]: 0 CFU/g
Log Reduction (CFU/g) [2, 6]: 6.81 CFU/g
Log Post-Disinfection (CFU/g) [2, 7]: 0 CFU/g
Log Reduction (CFU/g) [2, 7]: 6.33 CFU/g
Log Post-Disinfection (CFU/g) [2, 8]: 0 CFU/g
Log Reduction (CFU/g) [2, 8]: 6.09 CFU/g
Log Post-Disinfection (CFU/g) [2, 9]: 0 CFU/g
Log Reduction (CFU/g) [2, 9]: 6.09 CFU/g
Log Post-Disinfection (CFU/g) [2, 10]: 1.61 CFU/g
Log Reduction (CFU/g) [2, 10]: 4.48 CFU/g
Log10 Post-Disinfection (CFU/g) [2, 11]: 0 CFU/g
Log10 Reduction (CFU/g) [2, 11]: ≧5.25 CFU/g
Log Post-Disinfection (CFU/g) [3, 12]: 0 CFU/g
Log Reduction (CFU/g) [3, 12]: 4.90 CFU/g
Log Post-Disinfection (CFU/g) [3, 13]: 0 CFU/g
Log Reduction (CFU/g) [3, 13]: 4.90 CFU/g
Log Post-Disinfection (CFU/g) [3, 14]: 0 CFU/g
Log Reduction (CFU/g) [3, 14]: 5.45 CFU/g
Log Post-Disinfection (CFU/g) [3, 15]: 0 CFU/g
Log Reduction (CFU/g) [3, 15]: 4.90 CFU/g
Log Post-Disinfection (CFU/g) [3, 16]: 0 CFU/g
Log Reduction (CFU/g) [3, 16]: 5.45 CFU/g
Log Post-Disinfection (CFU/g) [3, 17]: 0 CFU/g
Log Reduction (CFU/g) [3, 17]: 5.45 CFU/g
Log Post-Disinfection (CFU/g) [3, 18]: 0 CFU/g
Log Reduction (CFU/g) [3, 18]: 6.38 CFU/g
Log Post-Disinfection (CFU/g) [3, 6]: 1.93 CFU/g
Log Reduction (CFU/g) [3, 6]: 4.31 CFU/g
Log Post-Disinfection (CFU/g) [3, 19]: 2.85 CFU/g
Log Reduction (CFU/g) [3, 19]: 2.95 CFU/g
Log Post-Disinfection (CFU/g) [3, 20]: 3.73 CFU/g
Log Reduction (CFU/g) [3, 20]: 2.07 CFU/g
Log10 Post-Disinfection (CFU/g) [3, 21]: 0 CFU/g
Log10 Reduction (CFU/g) [3, 21]: ≧6.23 CFU/g
Log10 Post-Disinfection (CFU/cm^2) [4, 22]: 0 CFU/cm^2
Log10 Reduction (CFU/cm^2) [4, 22]: 5.42 CFU/cm^2
eradication of spores ([4]; within a 12 minute dispense time): completely eradicate spores
log reductions for every combination of food crop and microbial challenge (Table 3) ([5]; 3 minutes dispense time): greater than 3
average log reduction of all of the runs shown in Table 1 ([5]; all food crops, microbial challenges and parameters of Table 1): 4.63
log reduction (lowest over all runs of Table 1) ([5]; no matter the food crop, microbial challenge or disinfection parameters): ≥ 2
